Earlier results as cited in patent publication US12115220B2, “Oral mucosal carrier and protectant” (Inspired Material Solutions, LLC, priority 2018, dated 2024).
Read-outs that look alike come from different tables or passages of the source.

[1] = 10 mg CBD+10 mg THC in an oral capsule
[2] = after buccal Sativex (10 mg THC+10 mg CBD)

Row | SMILES | mean (SD) peak plasma concentration [1] | mean (SD) peak plasma concentration [2] | Time to maximum concentration (Tmax) (after buccal administration) | Time to maximum concentration (Tmax) (after oral administration) | plasma maximum concentrations (after a 20 mg dose of oral THC) | bioavailability (inhaled) | time of peak concentrations postdose (oral absorption)
1 | C=C(C)[C@@H]1CCC(C)=C[C@H]1c1c(O)cc(CCCCC)cc1O [CBD, cannabidiol] | 2.5 (2.2) μg/L | 3.0 (3.1) μg/L | 2.8 (1.3) h | 1.3 (0.8) h |  |  | 
2 | CCCCCc1cc(O)c2c(c1)OC(C)(C)[C@@H]1CCC(C)=C[C@@H]21 [THC, delta-9-tetrahydrocannabinol] | 6.4 (3.1) μg/L | 6.1 (5.4) μg/L | 2.4 (1.1) h | 1.0 (0.6) h | 4.4 to 11.0 µg/L | up to 27% | 1 to 5 h
